Data taken from ChEMBL document CHEMBL5442175, “EUbOPEN Chemogenomics Library - PDSP Secondary Binding” (2024).

Tests used:
[1] = target: T1, Alpha-1D adrenergic receptor (Homo sapiens, UniProt P25100); experiment: (§1) PDSP Secondary Binding target: ADRA1D - Compounds are tested at 10 uM concentration, plate are incubated at room temperature in the dark for 90 minutes. Reaction are stopped by vacuum filtration onto 0.3% polyethyleneimine soaked filter mats using Filtermate harvester. Scintillation cocktail is then melted onto microwave-dried filters on a hot plate and the radio activity is counted in Microbia counter.
T1 sequence (P25100 whole entry): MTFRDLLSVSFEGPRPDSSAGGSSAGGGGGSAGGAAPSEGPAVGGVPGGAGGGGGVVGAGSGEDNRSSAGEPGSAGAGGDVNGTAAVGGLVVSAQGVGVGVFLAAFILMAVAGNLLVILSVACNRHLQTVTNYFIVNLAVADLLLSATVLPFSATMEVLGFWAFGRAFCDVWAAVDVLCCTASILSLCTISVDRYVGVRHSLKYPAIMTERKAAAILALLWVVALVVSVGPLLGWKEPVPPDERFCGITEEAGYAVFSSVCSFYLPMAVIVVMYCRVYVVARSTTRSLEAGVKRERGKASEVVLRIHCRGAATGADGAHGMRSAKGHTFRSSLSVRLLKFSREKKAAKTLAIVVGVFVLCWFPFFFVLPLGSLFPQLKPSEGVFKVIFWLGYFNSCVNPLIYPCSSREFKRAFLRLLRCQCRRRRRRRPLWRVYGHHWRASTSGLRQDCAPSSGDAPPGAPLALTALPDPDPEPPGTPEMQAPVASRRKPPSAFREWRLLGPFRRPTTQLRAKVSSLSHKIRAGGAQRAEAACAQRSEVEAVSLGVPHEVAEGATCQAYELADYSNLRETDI

[2] = target: Sodium-dependent dopamine transporter (Homo sapiens, UniProt Q01959); experiment: as §1, with “SLC6A3” for “ADRA1D”
[3] = target: T2, 5-hydroxytryptamine receptor 2C (Homo sapiens, UniProt P28335); experiment: as §1, with “HTR2C” for “ADRA1D”
T2 sequence (P28335 whole entry): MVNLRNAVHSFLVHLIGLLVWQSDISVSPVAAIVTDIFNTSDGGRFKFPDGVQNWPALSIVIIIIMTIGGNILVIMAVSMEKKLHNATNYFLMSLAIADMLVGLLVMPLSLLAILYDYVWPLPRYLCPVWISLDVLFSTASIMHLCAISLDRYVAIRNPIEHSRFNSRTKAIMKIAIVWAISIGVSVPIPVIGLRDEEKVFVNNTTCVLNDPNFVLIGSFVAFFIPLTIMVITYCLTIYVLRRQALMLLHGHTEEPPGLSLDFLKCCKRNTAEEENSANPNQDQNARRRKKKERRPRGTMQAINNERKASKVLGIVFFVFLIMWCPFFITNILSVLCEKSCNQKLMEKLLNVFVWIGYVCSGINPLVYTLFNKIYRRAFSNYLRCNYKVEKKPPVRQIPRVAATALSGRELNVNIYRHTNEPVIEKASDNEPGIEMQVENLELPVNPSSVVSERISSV

[4] = target: Sodium-dependent noradrenaline transporter (Homo sapiens, UniProt P23975); experiment: as §1, with “SLC6A2” for “ADRA1D”
Sodium-dependent noradrenaline transporter, sequence (P23975 whole entry): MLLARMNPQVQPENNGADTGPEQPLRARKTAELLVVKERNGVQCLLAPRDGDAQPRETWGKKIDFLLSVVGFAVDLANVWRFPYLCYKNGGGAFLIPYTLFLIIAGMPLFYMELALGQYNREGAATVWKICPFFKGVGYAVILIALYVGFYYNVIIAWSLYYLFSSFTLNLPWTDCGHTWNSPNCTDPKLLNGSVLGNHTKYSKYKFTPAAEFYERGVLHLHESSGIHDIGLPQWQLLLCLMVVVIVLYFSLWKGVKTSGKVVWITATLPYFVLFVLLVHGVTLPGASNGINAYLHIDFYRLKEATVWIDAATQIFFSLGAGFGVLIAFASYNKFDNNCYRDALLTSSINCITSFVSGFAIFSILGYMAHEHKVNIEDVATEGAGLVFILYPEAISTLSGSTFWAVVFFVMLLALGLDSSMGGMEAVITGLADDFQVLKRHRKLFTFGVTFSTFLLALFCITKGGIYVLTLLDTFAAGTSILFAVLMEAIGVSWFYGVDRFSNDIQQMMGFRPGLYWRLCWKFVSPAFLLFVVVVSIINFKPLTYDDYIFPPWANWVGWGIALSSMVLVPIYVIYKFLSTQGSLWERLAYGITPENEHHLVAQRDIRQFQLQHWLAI

[5] = target: T3, Alpha-1A adrenergic receptor (Homo sapiens, UniProt P35348); experiment: as §1, with “ADRA1A” for “ADRA1D”
T3 sequence (P35348 whole entry): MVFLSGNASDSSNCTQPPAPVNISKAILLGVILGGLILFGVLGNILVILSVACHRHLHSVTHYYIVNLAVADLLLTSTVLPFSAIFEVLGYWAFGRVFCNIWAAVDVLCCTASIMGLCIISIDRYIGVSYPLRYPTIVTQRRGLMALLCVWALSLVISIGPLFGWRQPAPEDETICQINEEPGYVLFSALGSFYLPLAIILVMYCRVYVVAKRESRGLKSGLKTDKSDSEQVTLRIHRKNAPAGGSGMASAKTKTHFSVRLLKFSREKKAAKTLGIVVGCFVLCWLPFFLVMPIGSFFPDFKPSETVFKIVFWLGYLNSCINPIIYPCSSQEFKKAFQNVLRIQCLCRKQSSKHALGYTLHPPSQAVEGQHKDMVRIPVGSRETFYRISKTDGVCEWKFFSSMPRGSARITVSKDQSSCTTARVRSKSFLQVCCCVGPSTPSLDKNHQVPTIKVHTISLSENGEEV

[6] = target: Beta-2 adrenergic receptor (Homo sapiens, UniProt P07550); experiment: as §1, with “ADRB2” for “ADRA1D”
Beta-2 adrenergic receptor, sequence (P07550 whole entry): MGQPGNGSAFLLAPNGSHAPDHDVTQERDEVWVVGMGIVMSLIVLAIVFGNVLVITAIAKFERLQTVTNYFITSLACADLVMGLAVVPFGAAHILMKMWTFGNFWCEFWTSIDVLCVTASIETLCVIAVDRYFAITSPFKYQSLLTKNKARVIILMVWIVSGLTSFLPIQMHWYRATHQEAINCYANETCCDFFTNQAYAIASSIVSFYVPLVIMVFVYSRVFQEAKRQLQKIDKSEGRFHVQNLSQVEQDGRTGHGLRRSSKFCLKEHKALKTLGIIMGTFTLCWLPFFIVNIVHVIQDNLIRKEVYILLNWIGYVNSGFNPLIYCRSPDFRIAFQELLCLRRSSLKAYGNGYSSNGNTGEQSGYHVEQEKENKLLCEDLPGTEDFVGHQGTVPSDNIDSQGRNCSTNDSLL

[7] = target: 5-hydroxytryptamine receptor 2A (Homo sapiens, UniProt P28223); experiment: as §1, with “HTR2A” for “ADRA1D”
5-hydroxytryptamine receptor 2A, sequence (P28223 whole entry): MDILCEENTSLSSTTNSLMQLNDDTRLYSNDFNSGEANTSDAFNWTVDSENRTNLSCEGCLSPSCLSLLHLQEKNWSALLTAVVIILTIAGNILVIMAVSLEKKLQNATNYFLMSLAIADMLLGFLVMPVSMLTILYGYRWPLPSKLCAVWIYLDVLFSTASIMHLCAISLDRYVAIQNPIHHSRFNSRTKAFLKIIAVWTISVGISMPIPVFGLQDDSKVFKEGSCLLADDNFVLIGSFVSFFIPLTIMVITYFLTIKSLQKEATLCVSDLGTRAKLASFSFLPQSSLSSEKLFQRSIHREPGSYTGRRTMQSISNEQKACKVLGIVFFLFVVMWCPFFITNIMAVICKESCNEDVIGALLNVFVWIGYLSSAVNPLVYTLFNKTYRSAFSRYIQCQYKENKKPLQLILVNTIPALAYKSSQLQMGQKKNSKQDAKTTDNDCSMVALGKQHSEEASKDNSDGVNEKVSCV

[8] = target: 5-hydroxytryptamine receptor 6 (Homo sapiens, UniProt P50406); experiment: as §1, with “HTR6” for “ADRA1D”
5-hydroxytryptamine receptor 6, sequence (P50406 whole entry): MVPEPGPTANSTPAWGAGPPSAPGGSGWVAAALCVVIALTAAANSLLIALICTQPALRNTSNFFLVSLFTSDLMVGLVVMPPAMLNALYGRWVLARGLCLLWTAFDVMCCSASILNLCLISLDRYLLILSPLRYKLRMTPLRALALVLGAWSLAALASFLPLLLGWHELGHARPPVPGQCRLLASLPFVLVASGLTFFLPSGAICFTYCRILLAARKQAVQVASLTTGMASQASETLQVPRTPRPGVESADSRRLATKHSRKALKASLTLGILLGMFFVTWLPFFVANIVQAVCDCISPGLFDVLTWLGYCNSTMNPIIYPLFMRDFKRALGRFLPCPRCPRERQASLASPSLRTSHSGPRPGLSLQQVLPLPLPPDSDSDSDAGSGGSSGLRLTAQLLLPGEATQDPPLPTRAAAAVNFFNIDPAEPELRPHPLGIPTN

[9] = target: Sodium-dependent serotonin transporter (Homo sapiens, UniProt P31645); experiment: as §1, with “SLC6A4” for “ADRA1D”
Sodium-dependent serotonin transporter, sequence (P31645 whole entry): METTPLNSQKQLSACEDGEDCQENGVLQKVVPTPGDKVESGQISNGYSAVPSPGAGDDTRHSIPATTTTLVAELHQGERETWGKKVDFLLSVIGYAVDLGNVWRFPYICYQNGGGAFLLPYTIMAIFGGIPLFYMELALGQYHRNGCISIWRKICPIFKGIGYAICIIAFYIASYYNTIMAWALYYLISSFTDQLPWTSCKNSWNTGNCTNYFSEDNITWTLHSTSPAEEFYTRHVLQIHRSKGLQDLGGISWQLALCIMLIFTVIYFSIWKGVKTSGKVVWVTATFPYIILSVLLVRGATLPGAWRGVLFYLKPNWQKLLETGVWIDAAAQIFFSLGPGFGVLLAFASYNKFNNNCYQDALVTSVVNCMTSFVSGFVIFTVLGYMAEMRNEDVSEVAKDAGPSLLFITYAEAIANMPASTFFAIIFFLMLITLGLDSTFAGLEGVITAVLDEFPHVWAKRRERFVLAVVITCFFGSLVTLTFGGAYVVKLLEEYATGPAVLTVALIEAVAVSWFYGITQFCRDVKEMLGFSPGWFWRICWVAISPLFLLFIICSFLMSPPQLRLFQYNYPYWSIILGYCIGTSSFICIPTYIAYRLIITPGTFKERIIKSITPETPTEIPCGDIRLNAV

[10] = target: T4, Alpha-1B adrenergic receptor (Homo sapiens, UniProt P35368); experiment: as §1, with “ADRA1B” for “ADRA1D”
T4 sequence (P35368 whole entry): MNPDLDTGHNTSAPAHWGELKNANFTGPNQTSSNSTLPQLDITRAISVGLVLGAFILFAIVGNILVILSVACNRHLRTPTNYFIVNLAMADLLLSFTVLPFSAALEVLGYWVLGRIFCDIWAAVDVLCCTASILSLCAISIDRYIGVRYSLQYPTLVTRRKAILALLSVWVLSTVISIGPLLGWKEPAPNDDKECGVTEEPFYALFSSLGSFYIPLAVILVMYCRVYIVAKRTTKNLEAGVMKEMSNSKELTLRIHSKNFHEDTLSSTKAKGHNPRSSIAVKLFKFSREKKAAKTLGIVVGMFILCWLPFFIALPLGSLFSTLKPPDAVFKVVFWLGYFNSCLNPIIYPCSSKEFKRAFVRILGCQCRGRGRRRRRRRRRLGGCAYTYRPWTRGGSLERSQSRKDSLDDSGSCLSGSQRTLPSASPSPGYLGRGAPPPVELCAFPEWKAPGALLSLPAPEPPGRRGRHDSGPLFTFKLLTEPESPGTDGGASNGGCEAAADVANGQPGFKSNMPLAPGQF

[11] = target: Sigma intracellular receptor 2 (Homo sapiens, UniProt Q5BJF2); experiment: as §1, with “TMEM97” for “ADRA1D”
Sigma intracellular receptor 2, sequence (Q5BJF2 whole entry): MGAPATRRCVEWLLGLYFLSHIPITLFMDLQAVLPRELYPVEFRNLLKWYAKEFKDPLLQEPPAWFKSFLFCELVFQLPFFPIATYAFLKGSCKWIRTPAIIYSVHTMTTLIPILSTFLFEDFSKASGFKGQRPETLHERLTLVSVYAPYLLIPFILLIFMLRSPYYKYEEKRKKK

D(3) dopamine receptor = D(3) dopamine receptor (Homo sapiens, UniProt P35462); experiment: as §1, with “DRD3” for “ADRA1D”
D(3) dopamine receptor, sequence (P35462 whole entry): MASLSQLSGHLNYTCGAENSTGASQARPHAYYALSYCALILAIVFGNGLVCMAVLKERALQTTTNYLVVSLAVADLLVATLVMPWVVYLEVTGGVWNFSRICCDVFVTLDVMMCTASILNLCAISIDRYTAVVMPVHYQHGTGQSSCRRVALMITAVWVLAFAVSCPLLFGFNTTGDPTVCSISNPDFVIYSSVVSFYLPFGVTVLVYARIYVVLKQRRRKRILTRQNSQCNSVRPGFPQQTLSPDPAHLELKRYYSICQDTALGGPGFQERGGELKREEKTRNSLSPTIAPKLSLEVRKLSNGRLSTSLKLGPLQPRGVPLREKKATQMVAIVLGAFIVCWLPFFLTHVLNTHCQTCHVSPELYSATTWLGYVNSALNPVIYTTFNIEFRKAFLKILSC

[12] = target: 5-hydroxytryptamine receptor 5A (Homo sapiens, UniProt P47898); experiment: as §1, with “HTR5A” for “ADRA1D”
5-hydroxytryptamine receptor 5A, sequence (P47898 whole entry): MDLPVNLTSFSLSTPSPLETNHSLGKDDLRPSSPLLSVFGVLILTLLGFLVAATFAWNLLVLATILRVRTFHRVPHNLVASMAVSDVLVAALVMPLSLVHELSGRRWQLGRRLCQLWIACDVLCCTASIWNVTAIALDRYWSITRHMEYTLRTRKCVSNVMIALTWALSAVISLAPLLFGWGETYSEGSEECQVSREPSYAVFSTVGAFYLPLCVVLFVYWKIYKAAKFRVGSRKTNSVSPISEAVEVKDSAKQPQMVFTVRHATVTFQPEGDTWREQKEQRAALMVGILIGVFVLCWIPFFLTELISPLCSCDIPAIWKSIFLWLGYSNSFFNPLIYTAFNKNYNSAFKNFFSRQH

[13] = target: 5-hydroxytryptamine receptor 2B (Homo sapiens, UniProt P41595); experiment: as §1, with “HTR2B” for “ADRA1D”
5-hydroxytryptamine receptor 2B, sequence (P41595 whole entry): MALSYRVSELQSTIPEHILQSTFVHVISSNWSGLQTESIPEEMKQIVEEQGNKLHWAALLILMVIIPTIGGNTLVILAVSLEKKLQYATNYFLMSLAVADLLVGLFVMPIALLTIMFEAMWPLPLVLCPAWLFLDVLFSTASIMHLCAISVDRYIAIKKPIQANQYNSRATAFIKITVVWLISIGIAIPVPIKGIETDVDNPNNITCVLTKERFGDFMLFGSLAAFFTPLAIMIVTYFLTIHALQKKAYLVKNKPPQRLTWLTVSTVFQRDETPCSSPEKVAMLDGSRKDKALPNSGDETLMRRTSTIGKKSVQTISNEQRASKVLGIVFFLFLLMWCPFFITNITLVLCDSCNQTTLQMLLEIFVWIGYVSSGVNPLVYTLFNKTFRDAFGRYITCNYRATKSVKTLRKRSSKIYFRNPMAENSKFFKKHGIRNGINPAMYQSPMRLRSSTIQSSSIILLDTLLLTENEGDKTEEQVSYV

[14] = target: 5-hydroxytryptamine receptor 1D (Homo sapiens, UniProt P28221); experiment: as §1, with “HTR1D” for “ADRA1D”
5-hydroxytryptamine receptor 1D, sequence (P28221 whole entry): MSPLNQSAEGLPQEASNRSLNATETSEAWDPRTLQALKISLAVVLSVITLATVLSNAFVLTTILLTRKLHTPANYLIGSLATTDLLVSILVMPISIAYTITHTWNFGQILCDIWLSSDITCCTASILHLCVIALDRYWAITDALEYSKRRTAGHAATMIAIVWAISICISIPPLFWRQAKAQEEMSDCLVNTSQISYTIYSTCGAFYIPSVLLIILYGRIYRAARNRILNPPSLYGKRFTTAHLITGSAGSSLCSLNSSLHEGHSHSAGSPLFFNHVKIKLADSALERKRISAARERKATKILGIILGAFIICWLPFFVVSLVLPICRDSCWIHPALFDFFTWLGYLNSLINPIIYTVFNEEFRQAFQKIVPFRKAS

D(4) dopamine receptor = target: T5, D(4) dopamine receptor (Homo sapiens, UniProt P21917); experiment: as §1, with “DRD4” for “ADRA1D”
T5 sequence (P21917 whole entry): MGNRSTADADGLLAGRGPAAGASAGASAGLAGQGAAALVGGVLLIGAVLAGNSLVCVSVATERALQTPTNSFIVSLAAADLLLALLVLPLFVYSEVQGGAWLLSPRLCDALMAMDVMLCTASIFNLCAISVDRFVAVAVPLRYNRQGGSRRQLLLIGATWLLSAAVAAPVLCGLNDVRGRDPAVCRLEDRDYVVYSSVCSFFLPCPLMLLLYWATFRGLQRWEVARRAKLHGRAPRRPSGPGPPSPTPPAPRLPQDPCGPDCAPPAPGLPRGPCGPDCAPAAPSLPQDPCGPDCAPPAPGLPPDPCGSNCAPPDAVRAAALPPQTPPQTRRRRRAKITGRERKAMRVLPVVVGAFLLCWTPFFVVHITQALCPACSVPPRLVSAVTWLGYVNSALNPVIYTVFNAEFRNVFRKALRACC

[15] = target: Sigma non-opioid intracellular receptor 1 (Homo sapiens, UniProt Q99720); experiment: as §1, with “SIGMAR1” for “ADRA1D”
[16] = target: 5-hydroxytryptamine receptor 7 (Homo sapiens, UniProt P34969); experiment: as §1, with “HTR7” for “ADRA1D”
D(2) dopamine receptor = D(2) dopamine receptor (Homo sapiens, UniProt P14416); experiment: as §1, with “DRD2” for “ADRA1D”
[17] = target: 5-hydroxytryptamine receptor 1E (Homo sapiens, UniProt P28566); experiment: as §1, with “HTR1E” for “ADRA1D”
5-hydroxytryptamine receptor 1E, sequence (P28566 whole entry): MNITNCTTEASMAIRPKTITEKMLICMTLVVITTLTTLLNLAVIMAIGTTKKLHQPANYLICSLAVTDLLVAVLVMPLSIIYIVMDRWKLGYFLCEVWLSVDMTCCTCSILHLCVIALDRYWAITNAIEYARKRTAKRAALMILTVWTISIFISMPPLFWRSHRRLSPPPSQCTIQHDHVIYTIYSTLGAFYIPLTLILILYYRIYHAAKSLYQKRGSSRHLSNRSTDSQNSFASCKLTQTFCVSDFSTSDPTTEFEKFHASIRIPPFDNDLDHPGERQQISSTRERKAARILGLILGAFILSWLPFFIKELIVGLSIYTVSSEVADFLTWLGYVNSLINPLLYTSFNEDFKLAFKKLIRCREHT

[18] = target: 5-hydroxytryptamine receptor 1B (Homo sapiens, UniProt P28222); experiment: as §1, with “HTR1B” for “ADRA1D”
[19] = target: T6, Alpha-2A adrenergic receptor (Homo sapiens, UniProt P08913); experiment: as §1, with “ADRA2A” for “ADRA1D”
T6 sequence (P08913 whole entry): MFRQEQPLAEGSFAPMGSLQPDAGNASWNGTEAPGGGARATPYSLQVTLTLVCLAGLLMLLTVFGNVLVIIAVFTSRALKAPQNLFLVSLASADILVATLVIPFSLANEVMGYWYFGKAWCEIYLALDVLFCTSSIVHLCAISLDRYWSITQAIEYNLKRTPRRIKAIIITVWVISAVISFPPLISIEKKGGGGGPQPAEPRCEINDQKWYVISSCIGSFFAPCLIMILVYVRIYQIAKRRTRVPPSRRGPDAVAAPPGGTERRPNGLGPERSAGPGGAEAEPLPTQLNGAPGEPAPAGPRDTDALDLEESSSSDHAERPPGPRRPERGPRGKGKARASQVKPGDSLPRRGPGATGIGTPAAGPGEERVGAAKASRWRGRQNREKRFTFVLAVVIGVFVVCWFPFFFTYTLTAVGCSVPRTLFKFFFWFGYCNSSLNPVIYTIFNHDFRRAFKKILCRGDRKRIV

[20] = target: Beta-3 adrenergic receptor (Homo sapiens, UniProt P13945); experiment: as §1, with “ADRB3” for “ADRA1D”
Translocator protein = Translocator protein (Homo sapiens, UniProt P30536); experiment: as §1, with “TSPO” for “ADRA1D”
Translocator protein, sequence (P30536 whole entry): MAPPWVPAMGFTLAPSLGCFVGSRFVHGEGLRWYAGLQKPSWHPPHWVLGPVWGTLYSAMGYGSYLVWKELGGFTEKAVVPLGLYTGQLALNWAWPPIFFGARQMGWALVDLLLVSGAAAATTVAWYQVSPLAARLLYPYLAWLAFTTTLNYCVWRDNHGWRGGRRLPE

Row | Structure (SMILES) | Ki [3] [µM] | Ki [4] [µM] | Ki [6] [µM] | Ki [7] [µM] | Ki [9] [µM] | Ki [11] [µM] | Ki (D(3) dopamine receptor) [µM] | Ki [13] [µM] | Ki [14] [µM] | Ki [8] [µM] | Ki [12] [µM] | further results
1 | CS(=O)(=O)NC[C@H]1CC[C@H](Nc2nc3c(s2)CCSc2ccccc2-3)CC1 |  |  | 7.54 |  |  | 1.72 | 0.498 | 0.4 | 1.61 |  | 1.04 | 
2 | N#Cc1c[nH]c2c(C(=O)N3CCN(CCc4ccc(F)cc4)CC3)cccc12 [PRUVANSERIN] | 1.47 | 2.52 | > 10 | 0.00264 | 1.1 | 1.18 |  | 1.04 | 0.588 |  |  | Ki (D(4) dopamine receptor): 0.181 µM; Ki [15]: 0.178 µM; Ki [16]: 2.39 µM
3 | NCCc1c[nH]c2ccc(C(N)=O)cc12 |  | 2.65 |  |  |  | 4.57 |  |  |  | 0.325 | 0.00864 | Ki (D(2) dopamine receptor): > 10 µM; Ki [17]: 0.949 µM; Ki [18]: 0.0112 µM; Ki [19]: 2.16 µM

Further lines, with some results ahead:

Row | Ki [3] [µM] | Ki [4] [µM] | Ki [6] [µM] | Ki [7] [µM] | Ki [9] [µM] | Ki [11] [µM] | Ki (D(3) dopamine receptor) [µM] | Ki [13] [µM] | Ki [14] [µM] | Structure (SMILES) | Ki [8] [µM] | Ki [12] [µM] | further results
4 | 1.8 | 0.569 | 0.106 | 2.02 | 0.77 | 0.107 | 1.34 |  |  | CCc1cc2c(cc1CC)CC(NC[C@H](O)c1ccc(O)c3[nH]c(=O)ccc13)C2 [INDACATEROL] | > 10 |  | Ki [1]: 0.731 µM; Ki [2]: 0.075 µM; Ki [5]: 0.356 µM; Ki [10]: 4.32 µM
5 |  |  | 5.21 |  |  | 0.242 |  |  |  | CN(C)S(=O)(=O)c1ccc(NC(=S)N2CCC(C(O)(c3ccccc3)c3ccccc3)CC2)cc1 |  |  | Ki [20]: 3.5 µM; Ki (Translocator protein): 0.969 µM
